This is an account of results in patent US20050215548A1 (Cyclacel Limited, priority 2002, published 2005).

Usually IC50 stands for the concentration at which inhibition is half-maximal.

The subject of one experiment is MCF7 or H1299 cells. The experiment in a line: Cell cycle distribution, propidium iodide flow cytometry. The class given is cell-based, human. The following applies: 5 times IC50. As for the experimental part:
Cells were stained with propidium iodide and the cell cycle position was determined using a flow cytometer.
(Flow cytometry measures light scatter and fluorescence of single cells or particles in a stream.)

Experiment [1] concerns AGS. The experiment in a line: Combination treatment with cisplatin or etoposide, MTT, AGS. Particulars: MTT, 72 hours. Format: cell-based, human. The source says:
(§1) It is well established that radiotherapy and most current forms of chemotherapy cause extensive genetic damage and induction of the p53-dependent apoptotic pathway, which determines the important role of this tumor suppressor protein in cancer therapy. HDM2, on the other hand, as a transcriptional product and negative regulator pf p53, would destabilise p53 and diminish its pro-apoptotic function. Inhibitors of the p53-HDM2 negative feedback loop (e.g. compounds disrupting the p53-HDM2 complex) are expected to synergise with cytotoxic agents for induction of p53 and subsequent apoptosis. […] Both chemotherapeutic agents were used in the concentration range of 100-0.19 μM.

The next experiment concerns SJSA-1. The experiment in a line: Combination treatment with cisplatin or etoposide, MTT, SJSA-1. The following applies: MTT, 72 hours. The class given is cell-based, human.
Description: as §1

The subject of the next experiment is H1299. The experiment is described as follows: Combination treatment with cisplatin or etoposide, MTT, H1299. Format: cell-based, human. The following applies: 72 hours.
Description: as §1

The subject of experiment [2] is key proteins in the HDM2 pathway. The experiment is described as follows: SDS-PAGE and immunoblotting of key proteins in the HDM2 pathway. The following applies: for changes in protein levels and cell morphology: negative control: MCF7, 13.5 μM, 68/69: MCF7 and H1299 at five times IC50 of 69, 49: AGS, SJSA1, H1299. Format: cell-based, human. The source says:
Equal amounts of cell lysate were separated by SDS-PAGE and analysed by immunoblotting using the indicated antibodies. An estimation of the extent of cell rounding is indicated above each lane. […] (B) The effect of compound 2 on the levels of the cell cycle proteins in AGS cells (wild-type 53). […] Equal amounts of cell lysate were separated by SDS-PAGE and analysed by immunoblotting using the indicated antibodies. An estimation of the extent of cell rounding is indicated above each lane. (C) The effect of negative control compound (refer Example 10), compound 2, cisplatin, and anisomycin on the levels of key proteins in MCF7 cells. […] Cisplatinum and anisomycin (a transcription inhibitor) treatments were with 50 μM or 37 μM, respectively. Cells were harvested at various time points; afterwards lysates were prepared and separated by SDS-PAGE and analysed by immunoblotting. The proteins detected are indicated. The extent of rounded or floating cells and the percentage viable cells were assessed. […] Equal amounts of cell lysate were separated by SDS-PAGE and analysed by immunoblotting using a range of antibodies. An estimation of the extent of cell rounding is indicated above each lane. […] SJSA1 cells were treated with 5 times [IC50] of compound 2 and collected at the indicated time points. Equal amounts of cell lysate were separated by SDS-PAGE and analysed by immunoblotting using a range of antibodies. An estimation of the extent of cell rounding is indicated above each lane.
Many types of cellular stress converge on the p53 pathway and induce its activity. […] The biological effect of bisarylsufonamides on cellular level was studies using representative compounds (mainly compound 2) and number of cell lines with different HDM2 and p53 status. These were overexpressing Hdm2 (SJSA1—osteosarcoma), wild type p53 and normal levels of HDM2 (AGS—gastric adenocarcinoma, MCF7—breast adenocarcinoma), or p53 null, low levels of HDM2 (H1299—large cell lung carcinoma).
Cells were lysed and equal amounts were analysed by SDS-polyacrylamide gel electrophoresis (SDS-PAGE) and immunoblotting.
Background: A western blot detects proteins with antibodies after separation by electrophoresis.

Experiment [3] has as its target T1, HDM2 (Homo sapiens, UniProt Q00987).
T1 construct: Recombinant HDM2 (1.5 μg per well) in TBS-BSA buffer
The experiment is described as follows: Fluorescence polarisation competitive HDM2 binding assay. The gist of the method: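 Recombinant HDM2 (1.5 μg/well) was preincubated 5 min at room temperature with serially diluted compound in 50 mM Tris pH 7.4, 150 mM NaCl, 0.1% BSA, 5% DMSO final. Fluorescein-labelled p53 peptide (0.2 μM) was then added for 45 min. Polarisation was read at 485/520 nm and IC50 derived from dose-response curves.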

The subject of experiment [4] is AGS. The experiment in a line: 72-h MTT cytotoxicity assay, AGS. The class given is cell-based. Particulars: Homo sapiens, 72-h MTT, Table 1, read-out: IC50 Anti-proliferative effect on cell line AGS. Put shortly: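 Compounds were incubated with three human tumour lines chosen for genetic contrast, then viability was scored by MTT reduction. AGS is gastric with intact p53, SJSA-1 is bone sarcoma bearing intact p53 and amplified HDM2 expression, and H1299 is lung carcinoma without p53.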
In general terms: Tetrazolium dyes change colour on reduction, which living cells bring about.

The target in experiment [5] is T1, HDM2. The following applies: literature, cited from earlier work; for affinity for HDM2 / inhibition of the p53/HDM2 complex: background.
Another experiment has as its system carcinoma cell lines. The experiment is described as follows: 72-h MTT panel, average carcinomas. The class given is cell-based. Particulars: Homo sapiens, read-out: Anti-proliferative activity, 72-h MTT IC50, Average carcinomas. As for the experimental part: Representative bisarylsulfonamide compounds were tested on a panel of transformed and non-transformed human cell lines, using a standard 72-h MTT cytotoxicity assay [Haselsberger K et al, ibid].
This differential selectivity further supports the notion that the bisarylsulfonamides modulate cellular HDM2 function. It is known that HDM2 amplification is particularly common in soft tissue sarcomas and osteosarcomas [Momand J et al, ibid; Bartel F, Meye A, Wurl P, Kappler M, Bache M, Lautenschlager C, Grunbaum U, Schmidt H, Taubert H; Int. J. Cancer 2001; 95: 168-175].

Where [6] appears, read: Table 5, read-out: IC50, agent alone.
The mark [7] stands for this setting: Homo sapiens, Table 6, read-out: IC50, agent alone.

Where two headings read alike, the source gives them in different places.

T1 sequence (Q00987 whole entry): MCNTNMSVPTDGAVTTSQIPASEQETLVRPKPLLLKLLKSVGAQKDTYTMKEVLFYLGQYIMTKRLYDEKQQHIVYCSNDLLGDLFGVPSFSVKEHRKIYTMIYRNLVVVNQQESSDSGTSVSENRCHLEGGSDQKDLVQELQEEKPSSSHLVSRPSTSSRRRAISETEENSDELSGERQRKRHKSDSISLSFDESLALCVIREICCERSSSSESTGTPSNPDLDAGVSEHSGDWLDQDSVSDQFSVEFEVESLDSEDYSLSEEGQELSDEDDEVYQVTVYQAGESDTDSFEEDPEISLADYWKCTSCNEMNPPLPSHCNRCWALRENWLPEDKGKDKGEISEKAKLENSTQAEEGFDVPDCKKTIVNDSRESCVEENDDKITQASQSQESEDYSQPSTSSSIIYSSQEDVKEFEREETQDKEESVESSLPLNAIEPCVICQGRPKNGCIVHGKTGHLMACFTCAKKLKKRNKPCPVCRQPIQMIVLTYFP

For the molecule `N.N.[Cl][Pt][Cl]` [Cisplatin, reference compound], the cell cycle arrest entry in the experiment with MCF7 or H1299 cells is reported as “no detectable arrest at any phase of the cell cycle”. In the experiment on MCF7 or H1299 cells, the “sub-G1 cells, indicative of apoptosis” value is reported as “induced sub-G1 cells”. The IC50 in the experiment with AGS [1] (setting [6]) came to 3.8 µM; in the experiment with SJSA-1 (setting [6]), 6.1 µM; in the experiment on H1299 (MTT, Table 5, read-out: IC50, agent alone), 2.9 µM. Also, in experiment [2] (compound 2: AGS, H1299, MCF7 or SJSA1 cells, etoposide or cisplatinum: AGS or MCF7 cells), the “p53 level and p53 phosphorylation at serine 15” value was “inducing p53 phosphorylation of serine 15, as well as increasing the p53 and E2F-1 protein levels”.

On to `O=[N+]([O-])c1ccc(S(=O)(=O)Nc2ccc(Cl)cc2)s1` [Compound 68, 5-Nitro-thiophene-2-sulfonic acid (4-chloro-phenyl)-amide], for which the IC50 on HDM2 [3] (text of Example 10, refer Table 1, read-out: competitive inhibition IC50) was 431 µM; with AGS [4], 76 µM. For the same molecule, in experiment [2], the “changes in protein levels and cell morphology” value is reported as “Little change in protein levels”.

Take `O=C(O)COc1ccc(C(=O)C=Cc2ccc(Cl)c(Cl)c2)cc1` [Compound B-1, {4-[3-(3,4-dichloro-phenyl)-acryloyl]-phenoxy}-acetic acid]: the “affinity for HDM2 / inhibition of the p53/HDM2 complex” value at HDM2 [5] is recorded as “high micromolar affinity”.

Consider `COc1cc([C@@H]2c3cc4c(cc3[C@@H](O[C@@H]3O[C@@H]5CO[C@@H](C)O[C@H]5[C@H](O)[C@H]3O)[C@H]3COC(=O)[C@H]23)OCO4)cc(OC)c1O` [Etoposide, reference compound], for which the IC50 was found to be 0.28 µM with AGS [1] (setting [7]); 16 µM in the experiment on SJSA-1 (setting [7]); 1.3 µM in the experiment on H1299 (Homo sapiens, NCI-H1299, MTT, Table 6, read-out: IC50, agent alone).

For the molecule `CC[C@H](CO)Nc1nc(NCc2ccccc2)c2ncn(C(C)C)c2n1` [Roscovitine, reference compound], the IC50 in the experiment with carcinoma cell lines came out at 11.2 ± 3 µM.

As for `O=S(=O)(NCc1ccc(C(F)(F)F)cc1)c1cc(Br)c(Cl)s1` [negative control compound, 4-bromo-5-chloro-thiophene-2-sulfonic acid 4-trifluoromethyl-benzylamide, reference compound], the “inhibition of the HDM2-p53 interaction in vitro” value on HDM2 [3] is “does not inhibit”. Further, in experiment [2], the “changes in protein levels and cell morphology” value was “did not induce any notable changes in the protein levels tested or cell morphology”.

With FMDYWEGL, the “affinity for HDM2 / inhibition of the p53/HDM2 complex” value with HDM2 [5] is “micromolar affinity”.

MPRFMDYWEGLN: in the experiment with HDM2 [5], the “affinity for HDM2 / inhibition of the p53/HDM2 complex” value is reported as “sub-micromolar affinity”. The “fold more potent than the corresponding wild-type p53-derived peptide” value with HDM2 [5] (versus 16QETFSDLWKLLF27) is on record as 28 fold.

Regarding “TFSDLW (UniProt P04637 18-23, looked up, fragment) [p53(18-23)]”, the “affinity for HDM2 / inhibition of the p53/HDM2 complex” value with HDM2 [5] was “little affinity”.

chlorofusin: at HDM2 [5], the “affinity for HDM2 / inhibition of the p53/HDM2 complex” value is given as “micromolar inhibitor”.
